# Activity calls are given as the source filed them. The calls are words filed in the database; no cut-off is given here.
# System: Feline coronavirus
# Assay: Antiviral activity against feline coronavirus
# Type: functional, organism-based
# Details: not given
row,Structure (SMILES),Activity
1,O=C(NCCCCNC(=O)c1ccc(O)c(O)c1O)c1ccc(O)c(O)c1O,inactive
2,O=C(NCCCCCCCCCCCCNC(=O)c1cc(O)c(O)c(O)c1)c1cc(O)c(O)c(O)c1,inactive
3,CCCCCCOC(=O)c1cc(O)c(O)c(O)c1 [HEXYL GALLATE],inactive
4,CCCCCOC(=O)c1cc(O)c(O)c(O)c1 [PENTYL GALLATE],inactive

# System: Chikungunya virus
# Assay: Antiviral activity against chikungunya virus
# Type: functional
# Details: not given
row,Structure (SMILES),Activity
1,O=C(NCCCCNC(=O)c1ccc(O)c(O)c1O)c1ccc(O)c(O)c1O,inactive
2,O=C(NCCCCCCCCCCCCNC(=O)c1cc(O)c(O)c(O)c1)c1cc(O)c(O)c(O)c1,inactive
3,CCCCCCOC(=O)c1cc(O)c(O)c(O)c1 [HEXYL GALLATE],inactive
4,CCCCCOC(=O)c1cc(O)c(O)c(O)c1 [PENTYL GALLATE],inactive

# System: Human respirovirus 3
# Assay: Antiviral activity against human parainfluenza virus 3
# Type: functional, organism-based
# Details: not given
row,Structure (SMILES),Activity
1,O=C(NCCCCNC(=O)c1ccc(O)c(O)c1O)c1ccc(O)c(O)c1O,inactive
2,O=C(NCCCCCCCCCCCCNC(=O)c1cc(O)c(O)c(O)c1)c1cc(O)c(O)c(O)c1,inactive
3,CCCCCCOC(=O)c1cc(O)c(O)c(O)c1 [HEXYL GALLATE],inactive
4,CCCCCOC(=O)c1cc(O)c(O)c(O)c1 [PENTYL GALLATE],inactive

# System: Human immunodeficiency virus 2
# Assay: Antiviral activity against HIV2 ROD infected in human CEM cells assessed as reduction in virus-induced cytopathicity after 4 to 5 days by microscopy based syncytium cell formation assay
# Type: functional, organism-based, ISOLATE ROD, CCRF-CEM
# Details: Human immunodeficiency virus 2, ISOLATE ROD, CCRF-CEM; read-out: EC50
row,Structure (SMILES),EC50 [µM]
1,O=C(NCCCCNC(=O)c1ccc(O)c(O)c1O)c1ccc(O)c(O)c1O,> 10
2,O=C(NCCCCCCCCCCCCNC(=O)c1cc(O)c(O)c(O)c1)c1cc(O)c(O)c(O)c1,26
3,CCCCCCOC(=O)c1cc(O)c(O)c(O)c1 [HEXYL GALLATE],6.6
4,CCCCCOC(=O)c1cc(O)c(O)c(O)c1 [PENTYL GALLATE],≥ 10

# System: Coxsackievirus B4
# Assay: Antiviral activity against human coxsackievirus B4
# Type: functional, organism-based
# Details: not given
row,Structure (SMILES),Activity
1,O=C(NCCCCNC(=O)c1ccc(O)c(O)c1O)c1ccc(O)c(O)c1O,inactive
2,O=C(NCCCCCCCCCCCCNC(=O)c1cc(O)c(O)c(O)c1)c1cc(O)c(O)c(O)c1,inactive
3,CCCCCCOC(=O)c1cc(O)c(O)c(O)c1 [HEXYL GALLATE],inactive
4,CCCCCOC(=O)c1cc(O)c(O)c(O)c1 [PENTYL GALLATE],inactive

# System: Vesicular stomatitis virus
# Assay: Antiviral activity against vesicular stomatitis virus
# Type: functional, organism-based
# Details: not given
row,Structure (SMILES),Activity
1,O=C(NCCCCNC(=O)c1ccc(O)c(O)c1O)c1ccc(O)c(O)c1O,inactive
2,O=C(NCCCCCCCCCCCCNC(=O)c1cc(O)c(O)c(O)c1)c1cc(O)c(O)c(O)c1,inactive
3,CCCCCCOC(=O)c1cc(O)c(O)c(O)c1 [HEXYL GALLATE],inactive
4,CCCCCOC(=O)c1cc(O)c(O)c(O)c1 [PENTYL GALLATE],inactive

# System: not listed separately
# Assay: Cytotoxicity against human CEM cells assessed as inhibition of cell proliferation
# Type: cell-based
# Details: CEM cells (CCRF-CEM)
row,Structure (SMILES),CC50 [µM]
1,O=C(NCCCCNC(=O)c1ccc(O)c(O)c1O)c1ccc(O)c(O)c1O,109
2,O=C(NCCCCCCCCCCCCNC(=O)c1cc(O)c(O)c(O)c1)c1cc(O)c(O)c(O)c1,58
3,CCCCCCOC(=O)c1cc(O)c(O)c(O)c1 [HEXYL GALLATE],14
4,CCCCCOC(=O)c1cc(O)c(O)c(O)c1 [PENTYL GALLATE],47

# System: Felid alphaherpesvirus 1
# Assay: Antiviral activity against feline herpesvirus
# Type: functional, organism-based
# Details: not given
row,Structure (SMILES),Activity
1,O=C(NCCCCNC(=O)c1ccc(O)c(O)c1O)c1ccc(O)c(O)c1O,inactive
2,O=C(NCCCCCCCCCCCCNC(=O)c1cc(O)c(O)c(O)c1)c1cc(O)c(O)c(O)c1,inactive
3,CCCCCCOC(=O)c1cc(O)c(O)c(O)c1 [HEXYL GALLATE],inactive
4,CCCCCOC(=O)c1cc(O)c(O)c(O)c1 [PENTYL GALLATE],inactive

# System: Influenza A virus H3N2
# Assay: Antiviral activity against influenza A virus H3N2
# Type: functional, organism-based
# Details: not given
row,Structure (SMILES),Activity
1,O=C(NCCCCNC(=O)c1ccc(O)c(O)c1O)c1ccc(O)c(O)c1O,inactive
2,O=C(NCCCCCCCCCCCCNC(=O)c1cc(O)c(O)c(O)c1)c1cc(O)c(O)c(O)c1,inactive
3,CCCCCCOC(=O)c1cc(O)c(O)c(O)c1 [HEXYL GALLATE],inactive
4,CCCCCOC(=O)c1cc(O)c(O)c(O)c1 [PENTYL GALLATE],inactive

# System: Hepatitis C virus
# Assay: Antiviral activity against HCV genotype 1b I389luc-ubi-neo/NS3-3'/5.1 replicons infected in human Huh5-2 HCV subgenomic replicon-containing cells assessed as reduction in virus replication after 3 days by luciferase reporter gene assay
# Type: functional, Hepacivirus hominis
# Details: Hepatitis C virus, genotype 1b, Huh-5-2, 72 h
row,Structure (SMILES),EC90 [µM]
1,O=C(NCCCCNC(=O)c1ccc(O)c(O)c1O)c1ccc(O)c(O)c1O,> 50
2,O=C(NCCCCCCCCCCCCNC(=O)c1cc(O)c(O)c(O)c1)c1cc(O)c(O)c(O)c1,> 100
3,CCCCCCOC(=O)c1cc(O)c(O)c(O)c1 [HEXYL GALLATE],> 50
4,CCCCCOC(=O)c1cc(O)c(O)c(O)c1 [PENTYL GALLATE],> 50

# Same assay, conditions: Hepatitis C virus, genotype 1b, Huh-5-2, 72 h; read-out: EC50
row,Structure (SMILES),EC50 [µM]
1,O=C(NCCCCNC(=O)c1ccc(O)c(O)c1O)c1ccc(O)c(O)c1O,15
2,O=C(NCCCCCCCCCCCCNC(=O)c1cc(O)c(O)c(O)c1)c1cc(O)c(O)c(O)c1,27
3,CCCCCCOC(=O)c1cc(O)c(O)c(O)c1 [HEXYL GALLATE],9
4,CCCCCOC(=O)c1cc(O)c(O)c(O)c1 [PENTYL GALLATE],14

# System: Influenza A virus
# Assay: Antiviral activity against influenza A virus (H1N1)
# Type: functional, organism-based
# Details: not given
row,Structure (SMILES),Activity
1,O=C(NCCCCNC(=O)c1ccc(O)c(O)c1O)c1ccc(O)c(O)c1O,inactive
2,O=C(NCCCCCCCCCCCCNC(=O)c1cc(O)c(O)c(O)c1)c1cc(O)c(O)c(O)c1,inactive
3,CCCCCCOC(=O)c1cc(O)c(O)c(O)c1 [HEXYL GALLATE],inactive
4,CCCCCOC(=O)c1cc(O)c(O)c(O)c1 [PENTYL GALLATE],inactive

# System: Human immunodeficiency virus 1
# Assay: Antiviral activity against HIV1 3B infected in human CEM cells assessed as reduction in virus-induced cytopathicity after 4 to 5 days by microscopy based syncytium cell formation assay
# Type: functional, organism-based, CCRF-CEM
# Details: Human immunodeficiency virus 1, 3B, CCRF-CEM; read-out: EC50
row,Structure (SMILES),EC50 [µM]
1,O=C(NCCCCNC(=O)c1ccc(O)c(O)c1O)c1ccc(O)c(O)c1O,> 10
2,O=C(NCCCCCCCCCCCCNC(=O)c1cc(O)c(O)c(O)c1)c1cc(O)c(O)c(O)c1,19
3,CCCCCCOC(=O)c1cc(O)c(O)c(O)c1 [HEXYL GALLATE],5.4
4,CCCCCOC(=O)c1cc(O)c(O)c(O)c1 [PENTYL GALLATE],14

# System: not listed separately
# Assay: Cytotoxicity against human Huh5-2 cells after 72 hrs by MTS assay
# Type: cell-based, Huh-5-2
# Details: not given
row,Structure (SMILES),CC50 at 72 h [µM]
1,O=C(NCCCCNC(=O)c1ccc(O)c(O)c1O)c1ccc(O)c(O)c1O,> 50
2,O=C(NCCCCCCCCCCCCNC(=O)c1cc(O)c(O)c(O)c1)c1cc(O)c(O)c(O)c1,> 100
3,CCCCCCOC(=O)c1cc(O)c(O)c(O)c1 [HEXYL GALLATE],> 50
4,CCCCCOC(=O)c1cc(O)c(O)c(O)c1 [PENTYL GALLATE],> 50

# System: Respiratory syncytial virus
# Assay: Antiviral activity against RSV
# Type: functional, organism-based
# Details: not given
row,Structure (SMILES),Activity
1,O=C(NCCCCNC(=O)c1ccc(O)c(O)c1O)c1ccc(O)c(O)c1O,inactive
2,O=C(NCCCCCCCCCCCCNC(=O)c1cc(O)c(O)c(O)c1)c1cc(O)c(O)c(O)c1,inactive
3,CCCCCCOC(=O)c1cc(O)c(O)c(O)c1 [HEXYL GALLATE],inactive
4,CCCCCOC(=O)c1cc(O)c(O)c(O)c1 [PENTYL GALLATE],inactive

# System: Vaccinia virus
# Assay: Antiviral activity against vaccinia virus
# Type: functional, organism-based
# Details: Orthopoxvirus vaccinia
row,Structure (SMILES),Activity
1,O=C(NCCCCNC(=O)c1ccc(O)c(O)c1O)c1ccc(O)c(O)c1O,inactive
2,O=C(NCCCCCCCCCCCCNC(=O)c1cc(O)c(O)c(O)c1)c1cc(O)c(O)c(O)c1,inactive
3,CCCCCCOC(=O)c1cc(O)c(O)c(O)c1 [HEXYL GALLATE],inactive
4,CCCCCOC(=O)c1cc(O)c(O)c(O)c1 [PENTYL GALLATE],inactive

# System: Punta Toro virus
# Assay: Antiviral activity against punta toro virus
# Type: functional, organism-based
# Details: not given
row,Structure (SMILES),Activity
1,O=C(NCCCCNC(=O)c1ccc(O)c(O)c1O)c1ccc(O)c(O)c1O,inactive
2,O=C(NCCCCCCCCCCCCNC(=O)c1cc(O)c(O)c(O)c1)c1cc(O)c(O)c(O)c1,inactive
3,CCCCCCOC(=O)c1cc(O)c(O)c(O)c1 [HEXYL GALLATE],inactive
4,CCCCCOC(=O)c1cc(O)c(O)c(O)c1 [PENTYL GALLATE],inactive

# System: Reovirus sp.
# Assay: Antiviral activity against reovirus
# Type: functional, organism-based
# Details: not given
row,Structure (SMILES),Activity
1,O=C(NCCCCNC(=O)c1ccc(O)c(O)c1O)c1ccc(O)c(O)c1O,inactive
2,O=C(NCCCCCCCCCCCCNC(=O)c1cc(O)c(O)c(O)c1)c1cc(O)c(O)c(O)c1,inactive
3,CCCCCCOC(=O)c1cc(O)c(O)c(O)c1 [HEXYL GALLATE],inactive
4,CCCCCOC(=O)c1cc(O)c(O)c(O)c1 [PENTYL GALLATE],inactive

# System: Sindbis virus
# Assay: Antiviral activity against sindbis virus
# Type: functional, organism-based
# Details: not given
row,Structure (SMILES),Activity
1,O=C(NCCCCNC(=O)c1ccc(O)c(O)c1O)c1ccc(O)c(O)c1O,inactive
2,O=C(NCCCCCCCCCCCCNC(=O)c1cc(O)c(O)c(O)c1)c1cc(O)c(O)c(O)c1,inactive
3,CCCCCCOC(=O)c1cc(O)c(O)c(O)c1 [HEXYL GALLATE],inactive
4,CCCCCOC(=O)c1cc(O)c(O)c(O)c1 [PENTYL GALLATE],inactive

# Source: ChEMBL document CHEMBL3407452, “Linear and branched alkyl-esters and amides of gallic acid and other (mono-, di- and tri-) hydroxy benzoyl derivatives as promising anti-HCV inhibitors” (Eur J Med Chem, 2015)
